{"source": "patent US7049321B2", "about": "“Methods and pharmaceutical compositions for treatment of central and peripheral nervous system disorders and compounds useful therefor” (Israel Institute for Biological Research, priority 2002, dated 2006)", "key": {"[1]": {"test_system": "mice with closed head injury", "assay": "Closed head injury in mice, neurological severity score", "format": "in vivo", "details": "for Balance test (beam walk): 80% in control", "experimental": "Closed head injury (CHI) was induced in mice as described in Chen et al, J Neurotrauma, 15: 231–237, 1998. Neurological severity scores (NSS) were assessed using a battery of 10 parameters (10=worst outcome, 0=normal function). The compounds tested (1 mg compound/kg body weight) vs. placebo-treated animals were injected ip 5 min after CHI vs. placebo-treated animals. Treated mice were evaluated at 1 h, to determine the severity of injury, and at 24 and 48 h to determine recovery. The NSS was as follows: 1. […] 2."}, "Protein binding, PBS": {"assay": "Protein binding, PBS", "format": "in vitro ADME", "details": "10 μM", "experimental": "Protein binding studies were carried out in human plasma, α1-glycoprotein, human serum albumin (HSA), and Dulbecco's Phosphate Buffered Saline (PBS). AF292 was added to a final concentration of 10 μM. […] (μM) and in human […] (AGP), (see Table 1)."}, "[2]": {"assay": "CNS safety: general observation and Irwin test in rats", "format": "in vivo, rat", "experimental": "AF292 was evaluated in rodents for possible effects on general behavior and other CNS related pharmacological effects. […] No behavioral or physical signs were observed 24 hours after administration. All rats were retained for 14 days, and throughout this retention period all rats appeared normal."}, "aged rats": {"test_system": "aged rats", "assay": "Morris water maze in aged rats", "format": "in vivo, Sprague-Dawley rats", "source_text": "Old (22–24 months old) and young (three months old) Sprague-Dawley rats had been tested in the MWM."}, "M1 mAChR": {"target": "T1, M1 mAChR (Homo sapiens, UniProt P11229)", "T1 construct": "expressed in transfected cells", "T1 sequence (P11229 whole entry)": "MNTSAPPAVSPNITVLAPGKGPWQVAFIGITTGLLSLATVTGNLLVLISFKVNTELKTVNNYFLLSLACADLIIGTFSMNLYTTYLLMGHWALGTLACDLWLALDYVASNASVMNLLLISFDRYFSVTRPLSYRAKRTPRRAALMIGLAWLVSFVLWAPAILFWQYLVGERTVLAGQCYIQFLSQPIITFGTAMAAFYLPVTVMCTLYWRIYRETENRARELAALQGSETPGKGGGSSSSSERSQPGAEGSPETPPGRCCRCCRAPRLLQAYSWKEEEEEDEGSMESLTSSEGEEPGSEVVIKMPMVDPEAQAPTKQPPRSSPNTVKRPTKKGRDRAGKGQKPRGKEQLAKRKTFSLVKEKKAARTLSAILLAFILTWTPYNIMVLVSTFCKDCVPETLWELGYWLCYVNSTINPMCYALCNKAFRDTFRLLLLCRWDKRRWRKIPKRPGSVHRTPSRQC", "assay": "Arachidonic acid (AA) release, M1", "format": "cell-based"}, "in vivo": {"assay": "in vivo", "details": "mouse", "description": "This calculation was based on the brain weight (2 gr) vs. total plasma volume (14 ml)."}, "tau proteins": {"test_system": "tau proteins", "assay": "tau phosphorylation, AT8 immunoblot", "format": "cell-based", "details": "100 μM; to the control level", "source_text": "Following the experimental design of Sadot et al., J. Neurochem. […] By linking an M1 agonist to an antioxidant moiety tau phophorylation may be decreased, providing a new therapeutic strategy in a variety of CNS disease states due to combined damage due to oxidative stress and tau hyperphosphorylation."}, "C57BL/10SnJ (B10) mice": {"test_system": "C57BL/10SnJ (B10) mice", "assay": "Morris water maze in small hippocampus mice", "format": "in vivo", "experimental": "C57BL/10SnJ (B10) mice were selected due to their small hippocampi and decreased number of hippocampal pyramidal neurons; the cell loss seemed to be associated with poor spatial learning.\nEach group of mice was randomly divided into 7 treatment groups (n=12-14/group). […] All tested compounds and saline were administered once a day for 4 days before starting the behavioral testing, and then for the duration of the 5-day experiment, 30 minutes before testing.\nTraining: Each mouse was trained for four consecutive days, four trials (one block) per day, in which the platform position remained constant and was located in the center of the southeast quadrant of the pool. Within each block of four trials, each mouse started at each of the starting locations, but the sequence of locations was randomly selected. A trial consisted of placing a mouse by hand into the water facing the wall of the pool at one of four starting locations, north, south, east or west, around the pool's perimeter. Escape latency (the time to find the platform), path length (the distance traveled by the mouse) and speed (the swimming rate of the mouse) were recorded on each trial by the monitoring system.\nFor each mouse, the path length, escape latency, and swimming speed of the four trials on each of the 4 training days were grouped into blocks (one block for each day). […] Specific comparisons were performed, using the simple main effects contrasts acalysis, which is specifically suited for testing significant interactions.\nTransfer test. During trial No. 17, on the fourth day, the platform was entirely removed from the pool (a probe trial). In this trial, the mouse was placed into the water for a limited period (30 s), and its spatial bias was measured by recording the relative distribution of escape latency and path length over the four quadrants of the pool.\nReversal test. During trials 18–21, on the fifth day, the platform position was changed to the northwest quadrant, opposite to the training quadrant. Thus, during reversal learning, the platform location was moved relative to the configuration of objects within the room, but the pool occupied the same place within the room throughout the entire experiment. Testing of the rats and measures taken were the same as in training.\nFor each mouse, the escape latency, path length and swimming speed of the reversal test (trials No. 18–21) were grouped into one block."}, "[3]": {"test_system": "rat primary hippocampal cell cultures", "assay": "APPs secretion in rat primary hippocampal cell cultures", "format": "cell-based", "details": "100 μm; culture not given"}, "[4]": {"assay": "Metabolic stability, dog liver microsomes", "format": "in vitro ADME", "details": "read-out: Metabolic Stability T1/2", "experimental": "(§1) The metabolic stability of AF292 was evaluated by monitoring its disappearance while incubated with rat, […], monkey, and human hepatic microsomes. Testosterone, and propranolol were run as assay controls."}, "[5]": {"assay": "Metabolic stability, human liver microsomes", "format": "in vitro ADME", "details": "read-out: Metabolic Stability T1/2", "experimental": "as §1"}, "[6]": {"assay": "Metabolic stability, monkey liver microsomes", "format": "in vitro ADME", "details": "read-out: Metabolic Stability T1/2", "experimental": "as §1"}, "[7]": {"assay": "Pharmacokinetic study in dogs", "format": "in vivo", "details": "beagle, dog, plasma", "source_text": "The results of the PK profile of AF292 in rats and Beagle dogs (overnight fasting; drug administered in water solution; gavage) are listed in Table 1."}, "[8]": {"assay": "Plasma levels of AF267B and AF292 in dogs after AF267B administration (toxicokinetic, LC-MS)", "format": "in vivo, Beagle dogs", "details": "beagle, dog, plasma, po", "source_text": "Internal Standard (AF261): 2-Methyl-8-methyl-1-thia-4,8-diaza-spiro[4.5]decan-3-one; MW 200. The analytical plasma samples originate from the in-life part of this study."}, "[9]": {"details": "oral, Dogs, extrapolated for 5 mg/kg"}}}
{"smiles": "CC[C@@H]1SC2(CCN(C)CC2)NC1=O", "note": "[AF267B, (S)-2-ethyl-8-methyl-1-thia-4,8-diaza-spiro[4.5]decan-3-one]", "values": [{"measurement": "NSS", "setting": "[1]; 1 mg/kg ip 5 min after CHI, 1 h", "result": "7.89+/−0.26"}, {"measurement": "NSS", "setting": "[1]; 1 mg/kg ip, 24 h", "result": "3.67+/−0.24"}, {"measurement": "NSS", "setting": "[1]; 1 mg/kg ip, 48 h", "result": "2.89+/−0.26"}, {"measurement": "Balance test (beam walk)", "setting": "[1]; 24 h (3 cm)", "result": 22, "unit": "%"}, {"measurement": "Balance test (beam walk)", "setting": "[1]; 48 h (2 cm)", "result": 33, "unit": "%"}, {"measurement": "Protein Binding", "setting": "Protein binding, PBS", "result": "PBS = 0%"}, {"measurement": "IRWIN TEST, duration of signs", "setting": "[2]; 100 mg/kg", "result": "duration 3–6 hrs.)."}, {"measurement": "IRWIN TEST, onset of signs", "setting": "[2]; 100 mg/kg", "result": 0.5, "unit": "h"}, {"measurement": "IRWIN TEST, signs", "setting": "[2]; 100 mg/kg p.o.", "result": "100 mg/kg: abnormalities of carriage, and apathy, decreased corneal reflex, diarrhea, and reduced grooming, increased urination, and salivation, lacrimation & and chromodacryorrhea, reduced locomotor and activity, passivity, decreased respiration, and reduced startle response"}, {"measurement": "IRWIN TEST, gross behavior & physiological state", "setting": "[2]; 1 & 10 mg/kg, p.o.", "result": "1 & 10 no effect on gross behavior"}, {"measurement": "Chromodacryorrhea, dose", "setting": "[2]; p.o.", "result": "Chromodacryorrhea: 100 mg/kg, p.o."}, {"measurement": "Convulsion, dose", "setting": "[2]; p.o.", "result": "Convulsion: 50 mg/kg, p.o."}, {"measurement": "Gnawing, dose", "setting": "[2]; p.o.", "result": "Gnawing; 50 mg/kg, p.o."}, {"measurement": "Hypothermia, dose", "setting": "[2]; p.o.", "result": "Hypothermia: 50 mg/kg, p.o."}, {"measurement": "Lacrimation, dose", "setting": "[2]; p.o.", "result": "Lacrimation: 50 mg/kg, p.o."}, {"measurement": "Mydriasis, dose", "setting": "[2]; p.o.", "result": "Mydriasis: 25 mg/kg, p.o."}, {"measurement": "Salivation, dose", "setting": "[2]; p.o.", "result": "Salivation: 40 mg/kg, p.o."}, {"measurement": "Sedation, dose", "setting": "[2]; p.o.", "result": "Sedation: 100 mg/kg, p.o."}, {"measurement": "Dose at which salivation and lacrimation begin", "setting": "[2]; po, first hour", "result": "about 40 mg/kg"}, {"measurement": "Learning", "setting": "aged rats; 1 mg/kg", "result": "tendency for improvement"}, {"measurement": "Reversal learning", "setting": "aged rats; AF267B 1 mg/kg, AF292 1 and 0.5 mg/kg, po", "result": "improved significantly the reversal learning"}, {"measurement": "Swimming ability", "setting": "aged rats; rat, in vivo", "result": "no significant effect on the swimming ability"}, {"measurement": "AA release vs. CCh, M1 mAChR", "setting": "M1 mAChR", "result": 100, "unit": "%"}, {"measurement": "MRT", "setting": "in vivo", "result": 2.13, "unit": "h"}, {"measurement": "Tmax", "setting": "in vivo", "result": "0.333 to 0.5", "unit": "h"}, {"measurement": "tau phosphorylation (AT8)", "setting": "tau proteins", "result": "induce dephosphorylation of tau proteins"}, {"measurement": "Training, escape latency", "setting": "C57BL/10SnJ (B10) mice; 0.5 and 1 mg/kg i.p. (rivastigmine, nicotine 1 mg/kg)", "result": "positively affected"}, {"measurement": "Training, path length", "setting": "C57BL/10SnJ (B10) mice; AF150(S) both doses, AF267B the higher dose", "result": "positively affected"}, {"measurement": "Reversal test, escape latency", "setting": "C57BL/10SnJ (B10) mice; mouse, in vivo", "result": "improved the escape latency"}, {"measurement": "Training, swimming speed", "setting": "C57BL/10SnJ (B10) mice; mouse, in vivo", "result": "enhanced the swimming speed in a dose dependent manner"}, {"measurement": "Transfer test, spatial bias", "setting": "C57BL/10SnJ (B10) mice; mouse, in vivo", "result": "complete spatial bias"}, {"measurement": "APPs secretion, fold over control (agonists vs CCh)", "setting": "[3]", "result": 2.8, "unit": "fold"}, {"measurement": "half-life", "setting": "[4]", "result": "> 1.67", "unit": "h"}, {"measurement": "half-life", "setting": "[5]", "result": "> 1.67", "unit": "h"}, {"measurement": "half-life", "setting": "[6]", "result": 0.45, "unit": "h"}, {"measurement": "AUC(0-inf)", "setting": "[7]; [9]", "result": 2760, "unit": "ng·h/mL"}, {"measurement": "Cmax", "setting": "[7]; [9]", "result": 1080, "unit": "ng/mL"}, {"measurement": "AUC(0-inf)", "setting": "[7]; po, Dogs., 1 mg/kg", "result": 552, "unit": "ng·h/mL"}, {"measurement": "Cmax", "setting": "[7]; po, Dogs., 1 mg/kg", "result": 257, "unit": "ng/mL"}, {"measurement": "MRT", "setting": "[7]; po, Dogs., 1 mg/kg", "result": 1.96, "unit": "h"}, {"measurement": "Tmax", "setting": "[7]; po, Dogs., 1 mg/kg", "result": "0.58 to 0.75", "unit": "h"}, {"measurement": "half-life", "setting": "[7]; po, Dogs., 1 mg/kg", "result": 1.33, "unit": "h"}, {"measurement": "AUC(0-t)", "setting": "[8]; both sexes", "result": "712 to 3950", "unit": "ng·h/mL"}, {"measurement": "Cmax", "setting": "[8]; both sexes", "result": "162 to 1350", "unit": "ng/mL"}, {"measurement": "Tmax", "setting": "[8]; both sexes", "result": "1.5 to 3", "unit": "h"}, {"measurement": "half-life", "setting": "[8]; both sexes, 6 mg/kg, read-out: plasma half life", "result": "1 to 2", "unit": "h"}, {"measurement": "AUC(0-inf)", "setting": "[8]; female, 6 mg/kg, F (1x), AF267B 1.5, 3, 6 mg/kg p.o. single", "result": "985 to 3180", "unit": "ng·h/mL"}, {"measurement": "AUC(0-inf)", "setting": "[8]; female, 6 mg/kg, F(13w), AF267B 1.5, 3, 6 mg/kg p.o.", "result": "1030 to 4160", "unit": "ng·h/mL"}, {"measurement": "MRT", "setting": "[8]; female, F (1x)", "result": "4.7 to 5.3", "unit": "h"}, {"measurement": "MRT at 13 weeks", "setting": "[8]; female, F(13w)", "result": "3.6 to 5.2", "unit": "h"}, {"measurement": "half-life", "setting": "[8]; female, read-out: Elimination half life, Mean T1/2", "result": 3.3, "unit": "h"}, {"measurement": "AUC(0-inf)", "setting": "[8]; male, 6 mg/kg, M (1x), AF267B 1.5, 3, 6 mg/kg p.o. single", "result": "800 to 3690", "unit": "ng·h/mL"}, {"measurement": "AUC(0-inf)", "setting": "[8]; male, 6 mg/kg, M(13w), AF267B 1.5, 3, 6 mg/kg p.o.", "result": "1040 to 4470", "unit": "ng·h/mL"}, {"measurement": "MRT", "setting": "[8]; male, M (1x)", "result": "3.8 to 5", "unit": "h"}, {"measurement": "MRT at 13 weeks", "setting": "[8]; male, M(13w)", "result": "3 to 4.2", "unit": "h"}, {"measurement": "half-life", "setting": "[8]; male, read-out: Elimination half life, Mean T1/2", "result": 2.1, "unit": "h"}]}
